Where two headings read alike, the source gives them in different places.
Assays:
[1] = molecular target: GDP-bound KRAS protein (aa 1-169), containing both G12D and C118A amino acid substitutions (Homo sapiens, UniProt P01116, C118A/G12D); assay: KRAS G12D Coupled Nucleotide Exchange Assay; format: biochemical
Method: KRAS G12D Coupled Nucleotide Exchange Assay
Following compound pre-incubation, purified SOS protein (aa 564-1049) and GTP (Roche 10106399001) were added to the assay wells and incubated for an additional 30 min. […] The assay plates were then read on a PerkinElmer EnVision Multilabel Reader, using AlphaScreen® technology, and data were analyzed using a 4-parameter logistic model to calculate IC50 values.

[2] = tested on: Phosphorylation of ERK1/2 in AsPC-1 cells; assay: Phospho-ERK1/2 MSD Assay; format: cell-based
Method: AsPC-1 (ATCC® CRL-1682™) cells were cultured in RPMI 1640 Medium (ThermoFisher Scientific 11875093) containing 10% fetal bovine serum (ThermoFisher Scientific 16000044) and Ix penicillin-streptomycin-glutamine (ThermoFisher Scientific 10378016). Sixteen hours prior to compound treatment, AsPC-1 cells were seeded in 96-well cell culture plates at a density of 25,000 cells/well and incubated at 37° C., 5% CO2. A compound dose-response titration was diluted in growth media, added to appropriate wells of a cell culture plate, and then incubated at 37° C., 5% CO2 for 2 h. Following compound treatment, cells were washed with ice-cold Dulbecco's phosphate-buffered saline, no Ca^2+ or Mg^2+ (ThermoFisher Scientific 14190144), and then lysed in RIPA buffer (50 mM Tris-HCl pH 7.5, 1% Igepal, 0.5% sodium deoxycholate, 150 mM NaCl, and 0.5% sodium dodecyl sulfate) containing protease inhibitors (Roche 4693132001) and phosphatase inhibitors (Roche 4906837001). Phosphorylation of ERK1/2 in compound-treated lysates was assayed using Phospho-ERK1/2 Whole Cell Lysate kits (Meso Scale Discovery K151DWD) according to the manufacturer's protocol. Assay plates were read on a Meso Scale Discovery Sector Imager 6000, and data were analyzed using a 4-parameter logistic model to calculate IC50 values.

[3] = molecular target: His-tagged KRAS G12D protein (Homo sapiens, UniProt P01116, G12D); assay: KRAS G12D TR-FRET Assay; format: binding
Method: KRAS G12D TR-FRET Assay Compounds of interest were prepared in a dose-response titration in DMSO, and 80 nL were added via Labcyte Echo to each well of a 384-well plate (Perkin Elmer 6008280). The His-tagged KRAS G12D protein (Amgen) was diluted to 20 nM in Assay Buffer (20 mM HEPES, pH 7.4, 10 mM MgCl2, 50 mM NaCl, 0.1% BSA, 0.01% Tween-20, 10 μM GDP) and 2 uL was added to the appropriate wells of the 384-well plate. The plate was incubated for 30 minutes at room temperature. Biotinylated KRPep-2d substrate (Amgen) was diluted to 20 nM in Assay Buffer and 2 μL was added to all wells and incubated for 1 hour at room temperature. Detection Reagent (0.4 nM LANCE Eu-W1024 Anti-6×-His (Perkin Elmer AD0401), 5 nM streptavidin-d2 (Cisbio 610SADLA)) was prepared in Assay Buffer, then 4 μL was added to the plate and incubated for 1 hour at room temperature. Plates were read using PerkinElmer EnVision (ex: 320 nm, em1: 665 nm, em2: 615 nm) and em1/em2 data was used to generate curve fits using a 4-parameter logistic model to calculate IC50 values.

[4] = Homo sapiens, ASPC1, 2 h, read-out: 2 h p-ERK (AsPC-1 cells), IC50, AsPC-1 cells, 2 h compound treatment

Sequence of GDP-bound KRAS protein (aa 1-169), containing both G12D and C118A amino acid substitutions (P01116 1-169 isoform P01116-2 G12D/C118A): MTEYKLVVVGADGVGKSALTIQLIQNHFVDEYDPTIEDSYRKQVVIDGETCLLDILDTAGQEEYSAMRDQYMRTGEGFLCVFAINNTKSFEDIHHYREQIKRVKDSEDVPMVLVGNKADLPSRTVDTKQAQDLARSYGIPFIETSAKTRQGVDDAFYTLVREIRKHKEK
Sequence of His-tagged KRAS G12D protein (P01116 1-188 isoform P01116-2 G12D): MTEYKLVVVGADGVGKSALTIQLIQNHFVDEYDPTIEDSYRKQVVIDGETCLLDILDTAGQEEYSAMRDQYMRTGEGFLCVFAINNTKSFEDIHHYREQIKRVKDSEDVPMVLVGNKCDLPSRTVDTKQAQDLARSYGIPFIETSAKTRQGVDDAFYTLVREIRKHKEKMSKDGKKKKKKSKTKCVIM

SMILES	IC50 [1]	IC50 [2, 4]	IC50 [3]	IC50 ([2]; read-out: 2 h p-ERK (AsPC-1 cells), IC50, AsPC-1 cells, 2 h compound treatment)
CCc1c(F)ccc2cc(N)cc(-c3c(F)cc4c(N5CCCC(O)(C(F)F)C5)nc(OC[C@@]56CCCN5C[C@H](F)C6)nc4c3F)c12 (stereo partly drawn) [Example 68, 1-(7-(3-Amino-8-ethyl-7-fluoronaphthalen-1-yl)-6,8-difluoro-2-(((2R,7aS)-2-fluorotetrahydro-1H-pyrrolizin-7a(5H)-yl)methoxy)quinazolin-4-yl)-3-(difluoromethyl)piperidin-3-ol]	23 nM	1930 nM	436 nM	–
CCc1c(F)ccc2cc(O)cc(-c3c(N)cc4c(N5CCCOCC5)nc(OC[C@@]56CCCN5C[C@H](F)C6)nc4c3F)c12 [Example 46, 4-(6-Amino-8-fluoro-2-(((2R,7aS)-2-fluorotetrahydro-1H-pyrrolizin-7a(5H)-yl)methoxy)-4-(1,4-oxazepan-4-yl)quinazolin-7-yl)-5-ethyl-6-fluoronaphthalen-2-ol]	36 nM	2570 nM	79 nM	–
CCc1c(F)ccc2cc(O)cc(-c3c(F)cc4c(N5CCCC6(CCO6)C5)nc(OC[C@@]56CCCN5C[C@H](F)C6)nc4c3F)c12 (single isomer, unassigned) [Example 38]	12 nM	–	12 nM	425 nM
C/C=C\c1c(C)cc2[nH]ncc2c1-c1ccc2c(N3CCOC[C@@](C)(O)C3)nc(OC[C@@]34CCCN3C[C@H](F)C4)nc2c1F [Example 106, (6S)-4-(8-Fluoro-2-(((2R,7aS)-2-fluorotetrahydro-1H-pyrrolizin-7a(5H)-yl)methoxy)-7-(6-methyl-5-((Z)-prop-1-en-1-yl)-1H-indazol-4-yl)quinazolin-4-yl)-6-methyl-1,4-oxazepan-6-ol]	4 nM	87 nM	7 nM	–
CCc1c(F)ccc2cc(O)cc(-c3ccc4c(N5CCC[C@]6(COC(=O)O6)C5)nc(OC[C@@]56CCCN5C[C@H](F)C6)nc4c3F)c12 (single isomer, unassigned) [Example 86]	4 nM	52 nM	6 nM	–
CCc1c(F)ccc2cc(O)cc(-c3c(F)cc4c(N5CCC[C@@](C)(O)C5)nc(OC[C@@]56CCCN5C[C@H](F)C6)nc4c3F)c12 (single isomer, unassigned) [Example 2]	1 nM	9 nM	1 nM	–
Oc1cc(Cl)c(C2CC2)c(-c2ccc3c(N4CCCOCC4)nc(OC[C@@]45CCCN4C[C@H](F)C5)nc3c2F)c1 [Example 7, 3-Chloro-4-cyclopropyl-5-(8-fluoro-2-(((2R,7a.S)-2-fluorotetrahydro-1H-pyrrolizin-7a(5H)-yl)methoxy)-4-(1,4-oxazepan-4-yl)quinazolin-7-yl)phenol]	11 nM	812 nM	12 nM	–
Cc1cc2[nH]ncc2c(-c2c(F)cc3c(N4CCC[C@@](C)(O)C4)nc(OC[C@@]45CCCN4C[C@H](F)C5)nc3c2F)c1[C@H]1C[C@H]1C (atropisomer, axis not shown; (aS)) [Example 121, (R)-1-((S)-6,8-Difluoro-2-(((2R,7aS)-2-fluorotetrahydro-1H-pyrrolizin-7a(5H)-yl)methoxy)-7-(6-methyl-5-((1S,2R)-2-methylcyclopropyl)-1H-indazol-4-yl)quinazolin-4-yl)-3-methylpiperidin-3-ol bis(2,2,2-trifluoroacetate)]	6 nM	156 nM	9 nM	–
C#Cc1c(F)ccc2cc(O)cc(-c3ccc4c(N5CC6CC(O)C(C6)C5)nc(OC[C@@]56CCCN5C[C@H](F)C6)nc4c3F)c12 (single isomer, unassigned) [Example 17]	9 nM	744 nM	11 nM	–
CCc1c(F)ccc2cc(O)cc(-c3c(F)cc4c(N5C[C@@H]6CO[C@@H](C6)C5)nc(OC[C@@]56CCCN5C[C@H](F)C6)nc4c3F)c12 (racemic) [Example 36, rac-4-(4-((1R,5S)-6-Oxa-3-azabicyclo[3.2.1]octan-3-yl)-6,8-difluoro-2-(((2R,7aS)-2-fluorotetrahydro-1H-pyrrolizin-7a(5H)-yl)methoxy)quinazolin-7-yl)-5-ethyl-6-fluoronaphthalen-2-ol]	12 nM	1080 nM	20 nM	–
Oc1cc(-c2ccc3c(N4CCCOCC4)nc(OC[C@@]45CCCN4C[C@H](F)C5)nc3c2F)c2ccccc2c1 [Example 42, 4-(8-Fluoro-2-(((2R,7aS)-2-fluorotetrahydro-1H-pyrrolizin-7a(5H)-yl)methoxy)-4-(1,4-oxazepan-4-yl)quinazolin-7-yl)naphthalen-2-ol]	14 nM	1160 nM	25 nM	–
C#Cc1c(F)ccc2cc(N)cc(-c3c(F)cc4c(N5CCCC6(CNC(=O)O6)C5)nc(OC[C@@]56CCCN5C[C@H](F)C6)nc4c3F)c12 (stereo partly drawn) [Example 69, 7-(7-(3-Amino-8-ethynyl-7-fluoronaphthalen-1-yl)-6,8-difluoro-2-(((2R,7aS)-2-fluorotetrahydro-1H-pyrrolizin-7a(5H)-yl)methoxy)quinazolin-4-yl)-1-oxa-3,7-diazaspiro[4.5]decan-2-one]	5 nM	175 nM	11 nM	–

The remaining lines, values ahead:

IC50 [1]	IC50 [2, 4]	IC50 [3]	IC50 ([2]; read-out: 2 h p-ERK (AsPC-1 cells), IC50, AsPC-1 cells, 2 h compound treatment)	SMILES
2 nM	2 nM	2 nM	–	CCc1c(F)ccc2cc(O)cc(-c3c(F)cc4c(N5CCOCC(C)(O)C5)nc(OC[C@@]56CCCN5C[C@H](F)C6)nc4c3F)c12 (single isomer, unassigned) [Example 34]
4 nM	8 nM	5 nM	–	C[C@@]1(O)COCCN(c2nc(OC[C@@]34CCCN3C[C@H](F)C4)nc3c(F)c(-c4cc(O)cc5ccc(F)c(Cl)c45)c(F)cc23)C1 (single isomer, unassigned) [Example 81]
2 nM	74 nM	3 nM	–	C/C=C\c1c(Cl)cc2[nH]ncc2c1-c1ccc2c(N3CCCC4(CNC(=O)O4)C3)nc(OC[C@@]34CCCN3C[C@H](F)C4)nc2c1F (stereo partly drawn) [Example 117, 7-(7-(6-Chloro-5-((Z)-prop-1-en-1-yl)-1H-indazol-4-yl)-8-fluoro-2-(((2R,7aS)-2-fluorotetrahydro-1H-pyrrolizin-7a(5H)-yl)methoxy)quinazolin-4-yl)-1-oxa-3,7-diazaspiro[4.5]decan-2-one]
4 nM	297 nM	4 nM	–	CCc1c(F)ccc2cc(O)cc(-c3ccc4c(N5CC6CC(O)C(C6)C5)nc(OC[C@@]56CCCN5C[C@H](F)C6)nc4c3F)c12 (single isomer, unassigned) [Example 15]
3 nM	115 nM	4 nM	–	C/C=C\c1c(Cl)cc2[nH]ncc2c1-c1ccc2c(N3CCC[C@@](C)(O)C3)nc(OC[C@@]34CCCN3C[C@H](F)C4)nc2c1F [Example 108, (3R)-1-(7-(6-Chloro-5-((Z)-prop-1-en-1-yl)-1H-indazol-4-yl)-8-fluoro-2-(((2R,7aS)-2-fluorotetrahydro-1H-pyrrolizin-7a(5H)-yl)methoxy)quinazolin-4-yl)-3-methylpiperidin-3-ol]
4 nM	47 nM	3 nM	–	CCc1c(F)ccc2cc(O)cc(-c3ccc4c(N5CCCC6(CC(=O)N6)C5)nc(OC[C@@]56CCCN5C[C@H](F)C6)nc4c3F)c12 (stereo partly drawn) [Example 51, 6-(7-(8-Ethyl-7-fluoro-3-hydroxynaphthalen-1-yl)-8-fluoro-2-(((2R,7aS)-2-fluorotetrahydro-1H-pyrrolizin-7a(5H)-yl)methoxy)quinazolin-4-yl)-1,6-diazaspiro[3.5]nonan-2-one]
